Results as given in patent US20240207414A1, “DISULFIDE-BASED PRODRUG COMPOUND” (Ludwig-Maximilians-Universitat Munchen, priority 2021, published 2024).
Values belong to the molecule of their own block, whether it stands above or below them.

Columns and labels:
[1] = test system: MEF cells with genetic knockout of TrxR (TrxR ko); assay: In vitro TrxR knockout assay: TrxR1 knockout MEF viability; format: cell-based, mouse; details: MEF TrxR ko versus fl/fl, 48 h, resazurin
Description: (§1) Assay Conditions: TrxR1 knockout and reference mouse embryonic fibroblasts (MEF) were a gift by Marcus Conrad (LMU Munich) and initially isolated from conditional TrxR1 knockout mouse embryos, were immortalised by lentiviral transduction. In vitro deletion of TrxR1 was achieved by Tat-Cre induced recombination and verified by PCR and Immunoblotting for TrxR1 as described in Conrad et al. Cancer Res. 2010, 70, 22, 9505. MEF knockout (ko) and control (fl/fl) cells were cultured under standard conditions, left to adhere for 24 h, then P17 or P18 were added from DMSO stock solution and adjusted to 1% vol DMSO. Cells were incubated under standard conditions for 48 h, then 0.20 volume equivalents of a solution of resazurin in PBS (0.15 mg/mL) were added and incubated for 3 h, then fluorescence (ex 544 nm, em 590 nm) was detected on a fluorescence platereader. Cell viability (%) is calculated relative to a control experiment with no P17 or P18 added, from the fluorescence values.

[2] = test system: control MEF cells (fl/fl); assay: In vitro TrxR knockout assay: control MEF (fl/fl) viability; format: cell-based; details: Mus musculus, 48 h, resazurin, read-out: IC50 antiproliferation / cell viability
Description: as §1

[3] = test system: A549 cells; assay: In vitro cell viability assay P19, P20 (resazurin); format: cell-based, human; details: 48 h
Description: (§2) Assay Conditions: Cells (A549 cells for P19 and P20; HeLa cells for P21 and P22) were cultured under standard conditions (Gao, L. et al. Cell Chemical Biology 2021, 28, 1-14. https://doi.org/10.1016/j.chembiol.2020.11.007), left to adhere for 24 h, then P19, P20, P21 or P22 were added from DMSO stock solution and adjusted to 1% vol DMSO. Cells were incubated under standard conditions for 48 h, then 0.20 volume equivalents of a solution of resazurin in PBS (0.15 mg/mL) were added and incubated for 3 hours, then fluorescence (ex 544 nm, em 590 nm) was detected on a fluorescence platereader. Cell viability (%) was calculated relative to a control experiment (no compound) from the fluorescence values.

[4] = test system: HeLa cells; assay: In vitro cell viability assay P21, P22 (resazurin); format: cell-based, human; details: 48 h
Description: as §2

[5] = test system: HeLa, A549 and MEF cells; assay: Cellular reduction assay (FIG. 3); format: cell-based, human, mouse; details: 100 μM, 1% vol DMSO, cells under ordinary conditions
Description: Assay Conditions: Cells were cultured under standard conditions (Gao, L. et al. Cell Chemical Biology 2021, 28, 1-14. https://doi.org/10.1016/j.chembiol.2020.11.007), left to adhere for 24 h, then compounds were added to 100 μM with 1% vol DMSO. Fluorescence timecourse measurements were acquired as in the chemoreductant assay, with all conditions in triplicates.
Data Representation: F(t)-F(0) is the fluorescence intensity signal increase as compared to time zero signal (fluorescence intensity immediately following compound addition, before probe activation can occur), in arbitrary units although with the same detection settings for all probes releasing the same cargo. This corresponds to reduction-triggered cargo release. “ctrf” indicates cells not treated with probes, as a negative control.

[6] = Chemical reductant assay: GSH challenge (cell-free); format: physicochemical; details: aq. TE buffer pH 7.4, 37° C., 6 h, GSH 0.01-10 mM
Text: (§3) This assay (see FIG. 1) examined the stability of disulfide-based reduction-triggered compounds of the invention when exposed to monothiol reductants, primarily the major physiological cellular monothiol GSH, and dithiol reductants like the disulfide reductant dithiothreitol (DTT), as evaluated in a cell-free assay, to determine whether these compounds can be useful for selective release.
(§4) Assay Conditions: A black 96-well plate with black bottom was charged with solutions of fluorophore-releasing reduction-triggered probes that are compounds of the invention (P1, P2, P3, P4 and P5) or that are not compounds of the invention and reveal the performance of prior art systems (X19) (80 μL; 25 μM in aq. TE buffer (pH 7.4) and 1.25% vol DMSO). Solutions of challenge species chosen from the monothiol glutathione (GSH, 0.1-50 mM) and the dithiol reductant dithiothreitol (DTT, 0.1-50 mM) or phosphine reductant tris-(2-carboxyethyl) phosphine (TCEP); (20 μL; 1 mM in aq. TE buffer (pH 7.4) were added and the reaction mixtures were incubated at 37° C. for 6 h while measuring fluorescence intensity over time [F(t)] using a BMG Labtech FLUOstar Omega platereader (λexc=355 nm, Δem=530 nm for PQ-OH-releasing probes X19, P1 and P2; Δexc=485 nm, Δem=530 nm for MF-OH-releasing probes P3 and P4.
(§5) Data Representation: F^max is the maximum possible fluorescence increase corresponding to complete reduction-triggered cargo release, i.e. the fluorescence intensity increase from time zero to signal plateau under TCEP incubation PQ-OH-releasing probes. F(t)/F^max(t) thus gives the timecourse measurements of fluorescence intensity, as a fraction of the maximum possible fluorescence signal. F^sat is the endpoint fluorescence intensity increase for each condition, ie. F^sat=(F(6 h)). F^sat/F^max thus gives the assay endpoint fluorescence intensity increase, as a fraction of the maximum possible fluorescence signal. In the GSH timecourse measurements shown in FIG. 1, all datasets annotated with concentrations only (0.01-10 mM) refer to GSH challenges, while datasets for TCEP positive control (100 μM) and no-reductant control (blank) are shown for comparison. The dose-response plots show F^sat/F^max for the different ratios between probe and GSH or probe and DTT concentrations, with a logarithmic horizontal scale.

[7] = Chemical reductant assay: DTT challenge (cell-free); format: physicochemical; details: aq. TE buffer pH 7.4, 37° C., 6 h
Text: as §3, §4, §5

SMILES: COc1cc2cc(C(=O)N3C[C@@H](CCl)c4c3cc(OC(=O)N3CCN(C)[C@@H]5CSSCC53)c3ccccc43)[nH]c2c(OC)c1OC (mixture of isomers) [Compound P17, (S)-1-(chloromethyl)-3-(5,6,7-trimethoxy-1H-indole-2-carbonyl)-2,3-dihydro-1H-benzo[e]indol-5-yl (cis)-4-methylhexahydro-[1,2]dithiino[4,5-b]pyrazine-1(2H)-carboxylate]
activation / cytotoxicity in TrxR ko cells compared to control cells [1]: activated less effectively
IC50 [2]: ~100 nM

SMILES: CCc1c2c(nc3ccc(OC(=O)N4CCN(C(=O)CCC(=O)N5CCN(C)CC5)[C@@H]5CSSC[C@@H]54)cc13)-c1cc3c(c(=O)n1C2)COC(=O)[C@]3(O)CC (racemic) [Compound P20, (R)-4,11-diethyl-4-hydroxy-3,14-dioxo-3,4,12,14-tetrahydro-1H-pyrano[3′,4′:6,7]indolizino[1,2-b]quinolin-9-yl (cis)-4-(4-(4-methylpiperazin-1-yl)-4-oxobutanoyl)hexahydro-[1,2]dithiino[4,5-b]pyrazine-1(2H)-carboxylate]
tolerability in cells compared with Irinotecan [3]: equally well-tolerated in cells as the approved cancer prodrug Irinotecan
toxicity to cells compared with SN-38 [3]: significantly less toxic to cells than the parent compound

SMILES: CCc1c2c(nc3ccc(OC(=O)N4CCN[C@@H]5CSSC[C@@H]54)cc13)-c1cc3c(c(=O)n1C2)COC(=O)[C@]3(O)CC (racemic) [Compound P19, (R)-4,11-diethyl-4-hydroxy-3,14-dioxo-3,4,12,14-tetrahydro-1H-pyrano[3′,4′:6,7]indolizino[1,2-b]quinolin-9-yl (cis)-hexahydro-[1,2]dithiino[4,5-b]pyrazine-1(2H)-carboxylate]
tolerability in cells compared with Irinotecan [3]: equally well-tolerated in cells as the approved cancer prodrug Irinotecan
toxicity to cells compared with SN-38 [3]: significantly less toxic to cells than the parent compound

SMILES: CC[C@@]1(O)C(=O)OCc2c1cc1n(c2=O)Cc2cc3c(CN(C)C)c(OC(=O)N4CCCC5CSSC[C@@H]54)ccc3nc2-1 (mixture of isomers) [Compound P22, (R)-10-((dimethylamino)methyl)-4-ethyl-4-hydroxy-3,14-dioxo-3,4,12,14-tetrahydro-1H-pyrano[3′,4′:6,7]indolizino[1,2-b]quinolin-9-yl (trans)-hexahydro-[1,2]dithiino[4,5-b]pyridine-1(2H)-carboxylate]
tolerability in cells compared with Irinotecan [4]: equally well-tolerated in cells as the approved cancer prodrug Irinotecan
toxicity to cells compared with SN-38 [4]: significantly less toxic to cells than the parent compound

SMILES: O=C(Oc1ccc(Cl)cc1-c1nc2ccc(Cl)cc2c(=O)[nH]1)N1CCN[C@@H]2CSSC[C@H]21 (racemic) [Compound P5, 4-chloro-2-(6-chloro-4-oxo-3,4-dihydroquinazolin-2-yl)phenyl trans-hexahydro-[1,2]dithiino[4,5-b]pyrazine-1(2H)-carboxylate]
cargo release inside cells (fluorescence signal increase over time) [5]: substantially release cargo inside cells cultured under ordinary conditions
cargo release (fluorescence) when challenged with monothiol reductant GSH [6]: does release cargo very efficiently
activation / cargo release by dithiol reductant DTT [7]: unusually strong and fast response

cargo release (fluorescence) when challenged with monothiol reductant GSH [6]: do not release cargo
SMILES: COc1ccc2c(c1)Oc1cc(OC(=O)N3CCC[C@@H]4CSSC[C@@H]43)ccc1C21OC(=O)c2ccccc21 (mixture of isomers) [Compound P4, 3′-methoxy-3-oxo-3H-spiro[isobenzofuran-1,9′-xanthen]-6′-yl-cis-hexahydro-[1,2]dithiino[4,5-b]pyridine-1(2H)-carboxylate]
cargo release inside cells (fluorescence signal increase over time) [5]: do not release cargo inside cells under ordinary conditions
activation / cargo release by dithiol reductant DTT [7]: efficiently activated by dithiol-type reductants

SMILES: COc1cc2cc(C(=O)N3C[C@@H](CCl)c4c3cc(OC(=O)N3CCN(C(=O)CCC(=O)N5CCN(C)CC5)[C@@H]5CSSCC53)c3ccccc43)[nH]c2c(OC)c1OC (mixture of isomers) [Compound P18, (S)-1-(chloromethyl)-3-(5,6,7-trimethoxy-1H-indole-2-carbonyl)-2,3-dihydro-1H-benzo[e]indol-5-yl (cis)-4-(4-(4-methylpiperazin-1-yl)-4-oxobutanoyl)hexahydro-[1,2]dithiino[4,5-b]pyrazine-1(2H)-carboxylate]
activation / cytotoxicity in TrxR ko cells compared to control cells [1]: activated less effectively
IC50 [2]: ~100 nM

cargo release (fluorescence) when challenged with monothiol reductant GSH [6]: do not release cargo
SMILES: COc1ccc2c(c1)Oc1cc(OC(=O)N3CCC[C@@H]4CSSC[C@H]43)ccc1C21OC(=O)c2ccccc21 (mixture of isomers) [Compound P3, 3′-methoxy-3-oxo-3H-spiro[isobenzofuran-1,9′-xanthen]-6′-yl-(trans)-hexahydro-[1,2]dithiino[4,5-b]pyridine-1(2H)-carboxylate]
activation / cargo release by dithiol reductant DTT [7]: efficiently activated by dithiol-type reductants

SMILES: CC[C@@]1(O)C(=O)OCc2c1cc1n(c2=O)Cc2cc3c(CN(C)C)c(OC(=O)N4CCCC5CSSC[C@H]54)ccc3nc2-1 (mixture of isomers) [Compound P21, (R)-10-((dimethylamino)methyl)-4-ethyl-4-hydroxy-3,14-dioxo-3,4,12,14-tetrahydro-1H-pyrano[3′,4′:6,7]indolizino[1,2-b]quinolin-9-yl (cis)-hexahydro-[1,2]dithiino[4,5-b]pyridine-1(2H)-carboxylate]
tolerability in cells compared with Irinotecan [4]: equally well-tolerated in cells as the approved cancer prodrug Irinotecan
toxicity to cells compared with SN-38 [4]: significantly less toxic to cells than the parent compound
